Measurements as given in patent US12729367B2, “Radial glia and astrocyte differentiation from human pluripotent stem cells” (The United States of America, as represented by the …, priority 2020, dated 2026).

What was measured:
iPSC-derived astrocytes = assay: Calcium transients in iPSC-derived astrocytes in response to stimuli; assay type: cell-based, human; conditions: DMSO as control treatment, FIG. 15
[1] = as described in Sidrauski et al.; cited from earlier work

SMILES: Nc1ncnc2c1ncn2[C@@H]1O[C@H](COP(=O)(O)OP(=O)(O)OP(=O)(O)O)[C@@H](O)[C@H]1O [ATP]
- intracellular calcium levels (iPSC-derived astrocytes): increase of intracellular calcium levels

SMILES: [Cl-].[K+] [KCL]
- intracellular calcium levels (iPSC-derived astrocytes): increase of intracellular calcium levels

SMILES: N[C@@H](CCC(=O)O)C(=O)O [glutamate]
- intracellular calcium levels (iPSC-derived astrocytes): increase of intracellular calcium levels

SMILES: O=C(COc1ccc(Cl)cc1)N[C@H]1CC[C@H](NC(=O)COc2ccc(Cl)cc2)CC1 [trans-ISRIB, N,N′-((1r,4r)-cyclohexane-1,4-diyl)bis(2-(4-chlorophenoxy)acetamide)]
- IC50 [1]: 5 nM
- potency of trans-ISRIB relative to cis-ISRIB [1]: 100 fold
